The target of the assay is T1, human androgen receptor (Homo sapiens, UniProt P10275).
T1 construct: expressed in transfected cells; host or cells: Chinese hamster ovary (CHO) cells, line CHO-AR-pMMTV-LUC 1G12-A5-CA
T1 sequence (P10275 1-920): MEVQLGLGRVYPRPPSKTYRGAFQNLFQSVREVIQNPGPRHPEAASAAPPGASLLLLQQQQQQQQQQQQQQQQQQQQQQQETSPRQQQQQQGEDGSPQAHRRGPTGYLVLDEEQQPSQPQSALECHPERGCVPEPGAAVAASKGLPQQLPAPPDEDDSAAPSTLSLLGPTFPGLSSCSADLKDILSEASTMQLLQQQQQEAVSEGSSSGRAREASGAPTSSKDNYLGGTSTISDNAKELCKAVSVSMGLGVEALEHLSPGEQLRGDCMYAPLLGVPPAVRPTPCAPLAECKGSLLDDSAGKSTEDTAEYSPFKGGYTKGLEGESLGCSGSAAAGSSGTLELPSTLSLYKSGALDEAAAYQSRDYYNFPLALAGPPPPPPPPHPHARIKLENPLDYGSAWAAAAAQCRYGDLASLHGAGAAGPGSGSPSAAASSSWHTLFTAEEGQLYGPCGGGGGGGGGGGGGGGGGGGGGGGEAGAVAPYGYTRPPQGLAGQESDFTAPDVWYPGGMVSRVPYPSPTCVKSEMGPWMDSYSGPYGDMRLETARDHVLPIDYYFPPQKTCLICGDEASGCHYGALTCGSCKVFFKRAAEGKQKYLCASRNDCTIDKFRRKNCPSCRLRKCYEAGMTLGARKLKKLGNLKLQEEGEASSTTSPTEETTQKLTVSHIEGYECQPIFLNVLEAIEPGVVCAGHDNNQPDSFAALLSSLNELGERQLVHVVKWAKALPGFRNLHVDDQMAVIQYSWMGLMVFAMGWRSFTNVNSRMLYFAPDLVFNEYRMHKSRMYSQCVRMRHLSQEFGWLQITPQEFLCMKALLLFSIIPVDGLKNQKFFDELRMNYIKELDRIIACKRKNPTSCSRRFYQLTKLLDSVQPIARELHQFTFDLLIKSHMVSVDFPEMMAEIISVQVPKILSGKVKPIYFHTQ
Kind of assay: Androgenic activity (potency) in vitro bioassay, CHO-AR-pMMTV-LUC 1G12-A5-CA cells, luciferase reporter. Type of assay: cell-based. The note with it: CHO cells stably transfected with human androgen receptor and MMTV-luciferase reporter; in the presence of 0.1 μmol/l onapristone; potencies expressed as percentage of DHT activity (maximal efficacy with 100 nmol/l DHT set as 100%). As for the experimental part:
The androgenic activity (potency) of the compounds of the invention was determined in an in vitro bioassay of Chinese hamster ovary (CHO) cells stably transfected with the human androgen receptor expression plasmid and a reporter plasmid in which the MMTV promoter is linked to the luciferase reporter gene. The cell line CHO-AR-pMMTV-LUC 1G12-A5-CA is described in Schoonen et al. (J. Steroid Biochem. Molec. Biol. 2002; 74: 213-222). The androgen receptor activity of compounds was determined in the presence of 0.1 μmol/l onapristone. The maximal efficacy in the presence of 100 nmol/1 DHT was set as 100%. The potencies are expressed as percentage of DHT activity.
(In general: Reporter assays use an easily measured gene product as a stand-in for the process of interest.)

Data on 19 compounds can be found in patent US7812036B2, “Androgens” (N.V. Organon, priority 2004, dated 2010).

For the compound `CN(C)c1ccc2c(Sc3ccccc3[N+](=O)[O-])cn(Cc3cccnc3)c2c1` [Example 19e, Dimethyl-[3-(2-nitro-phenylsulfanyl)-1-pyridin-3-ylmethyl-1H-indol-6-yl]-amine], the “Potency (%)” value is 2.6%.

For `N#CCNc1ccc2c(Sc3ccccc3[N+](=O)[O-])cn(Cc3cc(F)cc(F)c3)c2c1` [Example 20, [1-(3,5-Difluoro-benzyl)-3-(2-nitro-phenylsulfanyl)-1H-indol-6-ylamino]-acetonitrile], the “Potency (%)” value stood at 40.2%.

Regarding `CC(=O)CNc1ccc2c(Sc3ccccc3[N+](=O)[O-])cn(Cc3cc(F)cc(F)c3)c2c1` [Example 21a, 1-[1-(3,5-Difluoro-benzyl)-3-(2-nitro-phenylsulfanyl)-1H-indol-6-ylamino]-propan-2-one], the “Potency (%)” value turned out to be 7.2%.

With `O=[N+]([O-])c1ccccc1Sc1cn(Cc2cc(F)cc(F)c2)c2cc(NCCO)ccc12` [Example 21b, 2-[1-(3,5-Difluoro-benzyl)-3-(2-nitro-phenylsulfanyl)-1H-indol-6-ylamino]-ethanol], the “Potency (%)” value is recorded as 7.9%.

Consider `COCCNc1ccc2c(Sc3ccccc3[N+](=O)[O-])cn(Cc3cc(F)cc(F)c3)c2c1` [Example 21c], for which the “Potency (%)” value amounted to 11.4%.

`N#CCNc1ccc2c(Sc3ccccc3[N+](=O)[O-])cn(Cc3ccccn3)c2c1` [Example 21d, [3-(2-Nitro-phenylsulfanyl)-1-pyridin-2-ylmethyl-1H-indol-6-ylamino]-acetonitrile]: the “Potency (%)” value was determined as 6.7%.

As to `COCCNc1ccc2c(Sc3ccccc3[N+](=O)[O-])cn(Cc3ccccn3)c2c1` [Example 21e, (2-Methoxy-ethyl)-[3-(2-nitro-phenylsulfanyl)-1-pyridin-2-ylmethyl-1H-indol-6-yl]-amine], the “Potency (%)” value was 8.3%.

Regarding `COCCNc1ccc2c(Sc3ccccc3[N+](=O)[O-])cn(Cc3cccnc3)c2c1` [Example 21f, (2-Methoxy-ethyl)-[3-(2-nitro-phenylsulfanyl)-1-pyridin-3-ylmethyl-1H-indol-6-yl]-amine], the “Potency (%)” value is recorded as 20.9%.

For the compound `N#CCNc1ccc2c(Sc3ccccc3C#N)cn(Cc3cc(F)cc(F)c3)c2c1` [Example 21g, 2-[6-(Cyanomethyl-amino)-1-(3,5-difluoro-benzyl)-1H-indol-3-ylsulfanyl]-benzonitrile], the “Potency (%)” value was found to be 9.2%.

As to `N#Cc1ccccc1Sc1cn(Cc2cc(F)cc(F)c2)c2cc(NCCO)ccc12` [Example 21h], the “Potency (%)” value was 2.9%.

`COCCNc1ccc2c(Sc3ccccc3C#N)cn(Cc3cc(F)cc(F)c3)c2c1` [Example 21i]: the “Potency (%)” value is on record as 6.0%.

For `N#CCNc1ccc2c(Sc3ccccc3[N+](=O)[O-])cn(Cc3cccnc3)c2c1` [Example 21j, [3-(2-Nitro-phenylsulfanyl)-1-pyridin-3-ylmethyl-1H-indol-6-ylamino]-acetonitrile], the “Potency (%)” value came to 1.0%.

As to `O=[N+]([O-])c1ccccc1Sc1cn(Cc2cc(F)cc(F)c2)c2cc(NCC(F)(F)F)ccc12` [Example 21k, [1 (3,5-Difluoro-benzyl)-3-(2-nitro-phenylsulfanyl)-1H-indol-6-yl]-(2,2,2-trifluoroethyl)-amine], the “Potency (%)” value is on record as 0.6%.

Consider `CCCNc1ccc2c(Sc3ccccc3[N+](=O)[O-])cn(Cc3cc(F)cc(F)c3)c2c1` [Example 22a, [1-(3,5-Difluoro-benzyl)-3-(2-nitro-phenylsulfanyl)-1H-indol-6-yl]-propyl-amine], for which the “Potency (%)” value is 2.4%.

For `C#CCNc1ccc2c(Sc3ccccc3[N+](=O)[O-])cn(Cc3cc(F)cc(F)c3)c2c1` [Example 22b, [1-(3,5-Difluoro-benzyl)-3-(2-nitro-phenylsulfanyl)-1H-indol-6-yl]-prop-2-ynyl-amine], the “Potency (%)” value amounted to 27.1%.

With `C=C(C)CNc1ccc2c(Sc3ccccc3[N+](=O)[O-])cn(Cc3cc(F)cc(F)c3)c2c1` [Example 22c], the “Potency (%)” value turned out to be 1.2%.

With `O=[N+]([O-])c1ccccc1Sc1cn(Cc2cc(F)cc(F)c2)c2cc(NCC3CC3)ccc12` [Example 22d], the “Potency (%)” value worked out at 0.9%.

As for `COC(=O)CNc1ccc2c(Sc3ccccc3[N+](=O)[O-])cn(Cc3cc(F)cc(F)c3)c2c1` [Example 22e], the “Potency (%)” value was 4.0%.

For the compound “Methyl-[1-(3-meth 1-benzyl-3-(2-nitro-phenylsulfanyl)-1H-indol-6-yl]-amine [Example 5o]”, the “Potency (%)” value came to 1.6%.
